The species named for one data set is Rattus norvegicus. Briefly: Unbound clearance in rat. The note with it: in vivo. The class given is ADME, organism-based.
Data set [1] deals with T1, Tyrosine-protein kinase JAK2 (Homo sapiens, UniProt O60674). Put plainly: Inhibition of recombinant Jak2 (unknown origin) using biotinylated synthetic peptide substrate by homogeneous time resolved fluorescence assay.
Data set [2] has as its target T1, Tyrosine-protein kinase JAK2. Briefly: Inhibition of Jak2 (unknown origin) assessed as inhibition of STAT5 phosphorylation by cell-based assay.
Data set [3] is described as follows: Plasma clearance in rat. The class given is ADME, organism-based.
A further data set relates to Mus musculus. Briefly: Inhibition of Jak2 (unknown origin) in po dosed […] mouse assessed as inhibition of STAT5 phosphorylation measured after 1 to 8 hrs of dosing by PK/PD assay. The class given is functional, organism-based.
A short description of data set [4]: Plasma protein binding in rat. The class given is ADME, cell-free. Particulars: read-out: PPB (converted).
Data set [5] can be described thus: Volume of distribution in rat. The class given is ADME, organism-based. Particulars: in vivo.
The nature of data set [6]: Half life in rat. The class given is ADME, organism-based. Particulars: in vivo.
[7] abbreviates: Mus musculus, C56bl/6, read-out: IC50.

T1 sequence (O60674 whole entry): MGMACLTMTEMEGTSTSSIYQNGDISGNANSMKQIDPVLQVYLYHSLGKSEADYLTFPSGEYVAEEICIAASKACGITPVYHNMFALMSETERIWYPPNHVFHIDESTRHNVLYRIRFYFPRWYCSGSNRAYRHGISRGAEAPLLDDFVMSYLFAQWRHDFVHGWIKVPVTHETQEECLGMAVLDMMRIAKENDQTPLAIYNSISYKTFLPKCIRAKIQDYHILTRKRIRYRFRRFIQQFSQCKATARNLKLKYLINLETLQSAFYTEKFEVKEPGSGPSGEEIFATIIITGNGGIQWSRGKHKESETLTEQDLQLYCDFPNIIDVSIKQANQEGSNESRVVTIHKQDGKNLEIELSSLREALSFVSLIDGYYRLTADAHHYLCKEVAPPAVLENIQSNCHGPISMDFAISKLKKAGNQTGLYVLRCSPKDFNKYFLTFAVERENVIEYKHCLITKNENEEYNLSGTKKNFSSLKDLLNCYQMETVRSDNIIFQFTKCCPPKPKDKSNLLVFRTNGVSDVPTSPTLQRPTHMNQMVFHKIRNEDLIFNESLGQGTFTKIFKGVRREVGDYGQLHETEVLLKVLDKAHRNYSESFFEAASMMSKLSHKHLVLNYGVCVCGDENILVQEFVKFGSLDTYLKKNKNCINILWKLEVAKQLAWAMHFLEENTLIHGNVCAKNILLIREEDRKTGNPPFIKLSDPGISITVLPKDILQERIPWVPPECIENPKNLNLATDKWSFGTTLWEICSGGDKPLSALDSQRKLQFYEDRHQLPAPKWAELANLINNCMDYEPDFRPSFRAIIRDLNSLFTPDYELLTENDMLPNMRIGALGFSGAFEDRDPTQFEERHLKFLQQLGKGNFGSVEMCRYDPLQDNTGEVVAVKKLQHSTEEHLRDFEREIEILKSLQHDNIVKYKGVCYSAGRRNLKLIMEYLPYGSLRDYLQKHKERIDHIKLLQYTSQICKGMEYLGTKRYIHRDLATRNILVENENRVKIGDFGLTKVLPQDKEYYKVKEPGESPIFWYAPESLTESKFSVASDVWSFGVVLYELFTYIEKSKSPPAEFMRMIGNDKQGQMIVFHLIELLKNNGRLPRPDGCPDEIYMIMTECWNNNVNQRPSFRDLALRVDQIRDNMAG

Usually IC50 stands for the concentration that gives 50% inhibition. Usually clearance stands for the rate of elimination divided by the concentration. The low end stands for a low capacity for elimination, the high end for a high capacity for elimination. Regarding `CC(C)(O)c1cc(Cl)c(Nc2nc3ccncc3c3c(=O)[nH]ccc23)c(Cl)c1`, the CL in the data set listed under Rattus norvegicus turned out to be 1115 mL/min/kg. For the same molecule, the half-inhibitory concentration (IC50) in data set [1] was 0.5 nM; in data set [2], 18 nM; in the data set with Mus musculus (setting [7]), 1200 nM. For the same molecule, the clearance in data set [3] was determined as 29 mL/min/kg. In addition, in data set [4], the fraction unbound was 0.026.

As for `O=c1[nH]ccc2c(Nc3c(Cl)cc(C(O)C(F)F)cc3Cl)nc3ccncc3c12` (stereo not drawn), the CL in the data set listed under Rattus norvegicus was determined as 571 mL/min/kg. Further, the IC50 in data set [1] came to 0.2 nM; in data set [2], 26 nM; in the data set with Mus musculus (setting [7]), 1300 nM. This molecule also gave a clearance in data set [3] of 16 mL/min/kg. Also, in data set [4], the fraction unbound is 0.028.

Consider `O=c1[nH]ccc2c(Nc3c(Cl)cc(-c4ccn[nH]4)cc3Cl)nc3ccncc3c12`, for which the CL in the data set filed under Rattus norvegicus stood at 10000 mL/min/kg. Further, the results for the half-maximal inhibitory concentration (IC50) (in data set [1]; in data set [2]; in the data set on Mus musculus) were 1 nM, 37 nM and “Not Active”, respectively. In data set [3], the clearance turned out to be 10 mL/min/kg. For the same molecule, the fraction unbound in data set [4] is 0.001.

In the case of `CC(O)c1cc(Cl)c(Nc2nc3ccncc3c3c(=O)[nH]ccc23)c(Cl)c1` (stereo not drawn), the CL in the data set filed under Rattus norvegicus came to 1125 mL/min/kg. In addition, the concentration for half-maximal inhibition (IC50) in data set [1] was 0.6 nM; in data set [2], 12 nM; in the data set on Mus musculus (setting [7]), 400 nM. For the same molecule, in data set [3], the clearance worked out at 54 mL/min/kg. Besides, the fraction unbound in data set [4] was 0.048.

In the case of `O=c1[nH]ccc2c(NC3CC3)nc3ccc(F)cc3c12`, the 50% inhibitory concentration (IC50) in data set [1] stood at 200 nM.

In the case of `CC(C)[C@H](Nc1nc2ccncc2c2c(=O)[nH]ccc12)C(F)(F)F`, the figures for the half-inhibitory concentration (IC50) in data set [1] and in data set [2] were 10 nM and 170 nM, respectively.

On to `NS(=O)(=O)c1cc(Cl)c(Nc2nc3ccncc3c3c(=O)[nH]ccc23)c(Cl)c1`, for which the figures for the 50% inhibitory concentration (IC50) (in data set [1]; in data set [2]; in the data set with Mus musculus) were 0.15 nM, 113 nM and “Not Active”, respectively. For the same molecule, the clearance in data set [3] came to 50 mL/min/kg.

For `O=c1[nH]ccc2nc(NC3CC3)c3ccc(F)cc3c12`, in data set [1], the IC50 is 100 nM.

For the molecule `O=c1[nH]ccc2c(Nc3c(Cl)cc(F)cc3Cl)nc3ccncc3c12`, the IC50 in data set [1] stood at 0.8 nM; in data set [2] it was 14 nM.

For `O=c1[nH]ccc2c(Nc3c(Cl)cc(OC(F)(F)F)cc3Cl)nc3ccncc3c12`, the IC50 in data set [1] worked out at 3 nM; in data set [2], 140 nM.

Consider `O=c1[nH]ccc2c(Nc3c(Cl)cc(C(F)(F)F)cc3Cl)nc3ccncc3c12`, for which the concentration for half-maximal inhibition (IC50) in data set [1] was 1 nM; in data set [2] it was 49 nM.

Usually Vd stands for a proportionality between amount in the body and measured concentration, not a real space. A higher Vd goes with extensive tissue distribution. As a reminder, the half-life is the time needed for the level to fall by half in the phase considered. Higher therefore signals slow decline. In data set [5], `O=c1[nH]ccc2c(Nc3c(F)cc(F)cc3Cl)nc3ccncc3c12` yielded a Vd of 2.6 L/kg. In the data set filed under Rattus norvegicus, the CL stood at 875 mL/min/kg. Further, the IC50 in data set [1] amounted to 0.9 nM; in data set [2], 15 nM; in the data set on Mus musculus (setting [7]) it was 2300 nM. For the same molecule, the half-life in data set [6] is 48 min. This molecule also displayed a clearance in data set [3] of 41 mL/min/kg. Further, the fraction unbound in data set [4] was 0.048.

With `O=c1[nH]ccc2c(Nc3c(Cl)cncc3Cl)nc3ccncc3c12`, the half-inhibitory concentration (IC50) in data set [1] was determined as 2 nM; in data set [2], 24 nM.

For `O=c1[nH]ccc2c(Nc3c(F)cc(F)cc3F)nc3ccncc3c12`, the figures for the half-inhibitory concentration (IC50) in data set [1] and in data set [2] were 7 nM and 90 nM, respectively.

As for `CC(C)[C@@H](Nc1nc2cc[nH]c(=O)c2c2cnccc12)C(F)(F)F`, the clearance in data set [3] came out at 68 mL/min/kg.

Turning to `O=c1[nH]ccc2c(Nc3c(F)cccc3C(F)(F)F)nc3ccncc3c12`, the figures for the concentration for half-maximal inhibition (IC50) in data set [1] and in data set [2] were 9 nM and 90 nM, respectively.

The values above are taken from ChEMBL document CHEMBL3124786, “The discovery of reverse tricyclic pyridone JAK2 inhibitors. Part 2: lead optimization” (Bioorg Med Chem Lett, 2014).
